{
  "source": "patent US20240368163A1",
  "about": "“COMPOUNDS AND METHODS FOR MODULATING SPLICING” (REMIX THERAPEUTICS INC., priority 2021, published 2024)",
  "key": {"[1]": {"assay": "Transwell assay for membrane efflux and permeability", "format": "in vitro ADME, Canine", "conditions": "dog; MDCK-BCRP or MDCKII-MDR1 transwell, test compound 1 μM, 2 hours at 37° C.", "source_text": "Compounds described herein were screened for cell membrane permeability and efflux in a transwell assay using Madin-Darby Canine Kidney (MDCK) cells expressing Breast Cancer Resistance Protein (BCRP) or subclone MDCKII cells expressing Multidrug Resistance Protein 1 (MDR1).\nMDCK-BCRP or MDCKII-MDR1 Cells: The Netherlands Cancer Institute, High Glucose Dulbecco's Modified Eagle's Medium (DMEM): Gibco/Thermo Fisher Scientific, Fetal Bovine Serum (FBS): Coming, Hank's Balanced Salt Solution (HBSS) and Trypsin/EDTA: Gibco/Thermo Fisher Scientific, HTS Transwell-96 Well Permeable Supports: Coming Corporation, Millicell Epithelial Volt-Ohm: Millipore, Cellometer® Vision: Nexcelom Bioscience LLC, Infinite 200 PRO microplate reader: Tecan, MTS2/4 orbital shaker: IKA Labortechnik, HEPES/Penicillin/Streptomycin: Solarbio.\nMDCK-BCRP or MDCKII-MDR1 cells were seeded to each of the wells of the transwell plate at a density of 1.6×10^6 cells/mL and the plate was incubated for 4-8 days with medium changes every two days. To perform the drug transport assay, cell monolayers were first washed three times with pre-warmed HBSS and then incubated with gentle shaking (150 rpm) for 30 min at 37° C. Stock solutions of test compounds (e.g., exemplary compounds of Formulas (I), (II), and (III)) and control compounds (e.g., metoprolol, prazosin, and/or imatinib) were prepared in DMSO and adjusted to a working solution using HBSS. The final concentration of test compounds was 1 μM with DMSO; 0.5%. The plates were incubated at 37° C. for 2 hours."}, "[2]": {"system": "SMN2", "assay": "Splicing RT-qPCR panel, SMN2 canonical junction (CJ) mRNA", "format": "cell-based, human", "conditions": "RT-qPCR panel, canonical junction mRNA, compound concentration having 50% response in CJ decrease, read-out: SMN2 IC50 (decrease in CJ mRNA levels)", "in_short": "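Cells: A673 (DMEM/10% FBS) or K562 (IMDM/10% FBS). Dose: 11-pt 3-fold, top 10 uM final, ≤0.25% DMSO, 24 h, 37 °C. Readout: RT-qPCR of CJ/AJ exon junctions, ΔΔCt vs housekeeper and DMSO, RQ to % response.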"}},
  "note": "Where two headings read alike, the source gives them in different places.",
  "data": [
    {"smiles": "CN(c1ccc(-c2cc(F)c(-c3cn[nH]c3)c3cn[nH]c23)nn1)[C@@H]1C[C@H]2CC(F)(F)[C@@H](C1)N2", "note": "(stereo in doubt) [Compound 378, 6,6-difluoro-N-{6-[5-fluoro-4-(1H-pyrazol-4-yl)-1H-indazol-7-yl]pyridazin-3-yl}-N-methyl-8-azabicyclo[3.2.1]octan-3-amine]", "values": [
      {"measurement": "Papp at 2 h, 1 μM", "setting": "[1]", "result": "2 to 6", "unit": "×10⁻⁶ cm/s"},
      {"measurement": "efflux ratio at 2 h, 1 μM", "setting": "[1]", "result": "> 5"},
      {"measurement": "IC50", "setting": "[2]; Homo sapiens", "result": "< 100", "unit": "nM"}
    ]},
    {"smiles": "CN(c1ccc(-c2ccc(-c3cn[nH]c3)c3ncsc23)nn1)[C@@H]1C[C@H]2CC(F)(F)[C@@H](C1)N2", "note": "(stereo in doubt) [Compound 379, 6,6-difluoro-N-methyl-N-{6-[4-(1H-pyrazol-4-yl)-1,3-benzothiazol-7-yl]pyridazin-3-yl}-8-azabicyclo [3.2.1]octan-3-amine]", "values": [
      {"measurement": "Papp at 2 h, 1 μM", "setting": "[1]", "result": "2 to 6", "unit": "×10⁻⁶ cm/s"},
      {"measurement": "efflux ratio at 2 h, 1 μM", "setting": "[1]", "result": "1.5 to 5"},
      {"measurement": "IC50", "setting": "[2]; Homo sapiens", "result": "< 100", "unit": "nM"}
    ]},
    {"smiles": "CN(c1ccc(-c2ccc(-c3cn[nH]c3)c3cn[nH]c23)nn1)[C@@H]1C[C@H]2CC[C@@H](C1)N2", "note": "[Compound 104]", "values": [
      {"measurement": "Papp at 2 h, 1 μM", "setting": "[1]", "result": "< 2", "unit": "×10⁻⁶ cm/s"},
      {"measurement": "efflux ratio at 2 h, 1 μM", "setting": "[1]", "result": "> 5"},
      {"measurement": "IC50", "setting": "[2]; Homo sapiens", "result": "< 100", "unit": "nM"}
    ]},
    {"smiles": "CN(c1ccc(-c2ccc(-n3cccn3)c3cn[nH]c23)nn1)[C@@H]1C[C@H]2CC[C@@H](C1)N2", "note": "[Compound 105]", "values": [
      {"measurement": "Papp at 2 h, 1 μM", "setting": "[1]", "result": "< 2", "unit": "×10⁻⁶ cm/s"},
      {"measurement": "efflux ratio at 2 h, 1 μM", "setting": "[1]", "result": "> 5"},
      {"measurement": "IC50", "setting": "[2]; Homo sapiens", "result": "< 100", "unit": "nM"}
    ]},
    {"smiles": "CN(c1ccc(-c2ccc(-c3cn[nH]c3)c3ncsc23)nn1)C1CC(C)(C)NC(C)(C)C1", "note": "[Compound 132]", "values": [
      {"measurement": "Papp at 2 h, 1 μM", "setting": "[1]", "result": "< 2", "unit": "×10⁻⁶ cm/s"},
      {"measurement": "efflux ratio at 2 h, 1 μM", "setting": "[1]", "result": "> 5"},
      {"measurement": "IC50", "setting": "[2]; Homo sapiens", "result": "< 100", "unit": "nM"}
    ]},
    {"smiles": "CN(c1ccc(-c2ccc(-c3cn[nH]c3)c3cn[nH]c23)nn1)C1CC(C)(C)NC(C)(C)C1", "note": "[Compound 137]", "values": [
      {"measurement": "Papp at 2 h, 1 μM", "setting": "[1]", "result": "< 2", "unit": "×10⁻⁶ cm/s"},
      {"measurement": "efflux ratio at 2 h, 1 μM", "setting": "[1]", "result": "> 5"},
      {"measurement": "IC50", "setting": "[2]; Homo sapiens", "result": "100 to 1000", "unit": "nM"}
    ]},
    {"smiles": "CN(c1ccc(-c2ccc(-c3ccc(=O)n(C)c3)c3scnc23)nn1)C1CC(C)(C)NC(C)(C)C1", "note": "[Compound 178]", "values": [
      {"measurement": "Papp at 2 h, 1 μM", "setting": "[1]", "result": "< 2", "unit": "×10⁻⁶ cm/s"},
      {"measurement": "efflux ratio at 2 h, 1 μM", "setting": "[1]", "result": "> 5"},
      {"measurement": "IC50", "setting": "[2]; Homo sapiens", "result": "> 10000", "unit": "nM"}
    ]},
    {"smiles": "CC1(C)CC(Oc2ccc(-c3ccc(-c4cn[nH]c4)c4ncsc34)nn2)CCN1", "note": "(stereo not shown) [Compound 182]", "values": [
      {"measurement": "Papp at 2 h, 1 μM", "setting": "[1]", "result": "< 2", "unit": "×10⁻⁶ cm/s"},
      {"measurement": "efflux ratio at 2 h, 1 μM", "setting": "[1]", "result": "> 5"},
      {"measurement": "IC50", "setting": "[2]; Homo sapiens", "result": "100 to 1000", "unit": "nM"}
    ]},
    {"smiles": "c1nc2c(-c3cn[nH]c3)ccc(-c3ccc(OC4CCNCC4)nn3)c2s1", "note": "[Compound 183]", "values": [
      {"measurement": "Papp at 2 h, 1 μM", "setting": "[1]", "result": "< 2", "unit": "×10⁻⁶ cm/s"},
      {"measurement": "efflux ratio at 2 h, 1 μM", "setting": "[1]", "result": "> 5"},
      {"measurement": "IC50", "setting": "[2]; Homo sapiens", "result": "100 to 1000", "unit": "nM"}
    ]},
    {"smiles": "c1nc2c(-c3cn[nH]c3)ccc(-c3ccc(O[C@@H]4C[C@H]5CC[C@@H](C4)N5)nn3)c2s1", "note": "[Compound 184]", "values": [
      {"measurement": "Papp at 2 h, 1 μM", "setting": "[1]", "result": "< 2", "unit": "×10⁻⁶ cm/s"},
      {"measurement": "efflux ratio at 2 h, 1 μM", "setting": "[1]", "result": "> 5"},
      {"measurement": "IC50", "setting": "[2]; Homo sapiens", "result": "< 100", "unit": "nM"}
    ]},
    {"smiles": "CC1(C)CC(Nc2ccc(-c3ccc(-c4cn[nH]c4)c4ncsc34)nn2)CC(C)(C)N1", "note": "[Compound 186]", "values": [
      {"measurement": "Papp at 2 h, 1 μM", "setting": "[1]", "result": "< 2", "unit": "×10⁻⁶ cm/s"},
      {"measurement": "efflux ratio at 2 h, 1 μM", "setting": "[1]", "result": "> 5"},
      {"measurement": "IC50", "setting": "[2]; Homo sapiens", "result": "< 100", "unit": "nM"}
    ]},
    {"smiles": "c1nc2c(-c3cn[nH]c3)ccc(-c3ccc(N[C@@H]4C[C@H]5CC[C@@H](C4)N5)nn3)c2s1", "note": "[Compound 202]", "values": [
      {"measurement": "Papp at 2 h, 1 μM", "setting": "[1]", "result": "< 2", "unit": "×10⁻⁶ cm/s"},
      {"measurement": "efflux ratio at 2 h, 1 μM", "setting": "[1]", "result": "> 5"},
      {"measurement": "IC50", "setting": "[2]; Homo sapiens", "result": "< 100", "unit": "nM"}
    ]},
    {"smiles": "CCN(c1ccc(C2=CC=C(c3cn[nH]c3)C3N=CSC23)nn1)[C@@H]1C[C@H]2CC[C@@H](C1)N2", "note": "(stereo partly shown) [Compound 203]", "values": [
      {"measurement": "Papp at 2 h, 1 μM", "setting": "[1]", "result": "< 2", "unit": "×10⁻⁶ cm/s"},
      {"measurement": "efflux ratio at 2 h, 1 μM", "setting": "[1]", "result": "> 5"},
      {"measurement": "IC50", "setting": "[2]; Homo sapiens", "result": "< 100", "unit": "nM"}
    ]},
    {"smiles": "CN(c1ccc(-c2ccc(-c3cn[nH]c3)c3ncsc23)nn1)[C@H]1C[C@]2(C)CC[C@](C)(C1)N2", "note": "[Compound 204]", "values": [
      {"measurement": "Papp at 2 h, 1 μM", "setting": "[1]", "result": "< 2", "unit": "×10⁻⁶ cm/s"},
      {"measurement": "efflux ratio at 2 h, 1 μM", "setting": "[1]", "result": "> 5"},
      {"measurement": "IC50", "setting": "[2]; Homo sapiens", "result": "< 100", "unit": "nM"}
    ]},
    {"smiles": "[2H]C([2H])([2H])N(c1ccc(-c2ccc(-c3cn[nH]c3)c3ncsc23)nn1)[C@@H]1C[C@H]2CC[C@@H](C1)N2", "note": "[Compound 210]", "values": [
      {"measurement": "Papp at 2 h, 1 μM", "setting": "[1]", "result": "< 2", "unit": "×10⁻⁶ cm/s"},
      {"measurement": "efflux ratio at 2 h, 1 μM", "setting": "[1]", "result": "> 5"},
      {"measurement": "IC50", "setting": "[2]; Homo sapiens", "result": "< 100", "unit": "nM"}
    ]},
    {"smiles": "CN(c1ccc(-c2ccc(-c3cn[nH]c3)c3ncsc23)nn1)[C@H]1C[C@H]2COC[C@@H](C1)N2", "note": "[Compound 356, (endo)-N-methyl-N-{6-[4-(1H-pyrazol-4-yl)-1,3-benzothiazol-7-yl]pyridazin-3-yl}-3-oxa-9-azabicyclo[3.3.1]nonan-7-amine]", "values": [
      {"measurement": "IC50", "setting": "[2]", "result": "< 100", "unit": "nM"}
    ]}
  ]
}
